Experiment [1] concerns the target T1, human bombesin (hBombesin) 3 (Homo sapiens, UniProt P32247).
T1 construct: expressed in transfected cells; host or cells: Balb3T3
T1 sequence (P32247 1-399): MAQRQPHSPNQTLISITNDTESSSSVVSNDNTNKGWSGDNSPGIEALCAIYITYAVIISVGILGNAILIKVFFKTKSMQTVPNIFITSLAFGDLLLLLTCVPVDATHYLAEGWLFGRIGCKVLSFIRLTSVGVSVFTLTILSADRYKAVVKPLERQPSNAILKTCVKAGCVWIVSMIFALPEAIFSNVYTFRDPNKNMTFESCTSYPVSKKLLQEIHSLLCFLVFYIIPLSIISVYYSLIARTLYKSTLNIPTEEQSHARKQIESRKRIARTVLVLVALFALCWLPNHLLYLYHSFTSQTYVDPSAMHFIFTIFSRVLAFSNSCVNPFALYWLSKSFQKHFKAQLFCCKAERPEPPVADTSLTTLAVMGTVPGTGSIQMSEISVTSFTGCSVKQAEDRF
Description: Surface expression of FLAG-tagged bombesin receptor on phthalocyanine-loaded cells, anti-FLAG acceptor beads. The format is cell-based. The settings on record: 10 nM or 300 nM agonist, 1 hour at 37° C., Balb3T3 hBombesin 3 FLAG cells.
Description: Bombesin receptor is a well-characterized cell surface receptor which is known to internalize and decrease in cell surface expression following agonist (bombesin) binding. Balb3T3 cells expressing human bombesin (hBombesin) 3 with a FLAG tag and Balb3T3 cells expressing human bombesin 3 without a FLAG tag were used to monitor the expression and binding activity of the bombesin receptor, GPCR in these cells.
About 10 nM or 300 nM of the Bombesin peptide agonist, (6-14)[D-tyr6, b-Ala11, Phe13, Nle14] was incubated with Balb3T3 hBombesin 3 FLAG cells and Balb3T3 hBombesin WT cells for 1 hour at 37° C. after which cells were harvested, labeled with 10 μM to 30 μM Al^3+-phthalocyanine. The phthalocyanine-loaded cells are washed several times in MES or HEPES buffer following the incubation to remove excess phthalocyanine. About 20 to 40 of the anti-FLAG antibody-conjugated acceptor beads including a thioxene and europium chelate emission system are added to the assay mix including MES or HEPES buffer and the phthalocyanine-loaded cells and incubated for 1 hour at room temperature. […] The FLAG-tagged hBombesin was detected with anti-FLAG Acceptor beads in the assay.

A further experiment has as its target MEK1/ERK2 (Homo sapiens, UniProt Q02750). Description: One well multiplexed assay, 615 nm signal: interaction between MEK1 and ERK2 with increasing ATP. The class given is binding. The settings on record: signal detected at 615 nm, FIG. 4; read-out: EC50 for ATP-induced MEK1/ERK2 dissociation. An excerpt:
(§1) The kinase MEK1 is expressed with a histidine tag (6×His) at either the C- or N-terminus.
(§2) An antibody which recognizes MEK1 phosphorylated ERK2 (mouse anti-pTpY ERK1/2) is associated with acceptor beads containing thioxene, 9,10-bis(phenylethynyl)anthracene and rubrene via anti-mouse IgG antibody binding. The antibody used, p-Tyr-100, is a generic highly promiscuous anti-phosphotyrosine antibody which recognizes both mono (pY) and dual-(pTpY) phosphorylated forms of ERK2.
(§3) Increasing concentrations of ATP were used to promote the phosphorylation of ERK2 by MEK1.

A further experiment concerns the target MEK1 (Homo sapiens, UniProt Q02750). Description: One well multiplexed assay, 572 nm signal: ERK2 phosphorylation by MEK1 with increasing ATP. The class given is biochemical. The conditions noted are these: signal detected at 572 nm, FIG. 4; read-out: EC50 for ATP-induced ERK2 phosphorylation.
From the text: as §1, §2, §3

MEK1/ERK2, sequence (Q02750 whole entry, species assumed): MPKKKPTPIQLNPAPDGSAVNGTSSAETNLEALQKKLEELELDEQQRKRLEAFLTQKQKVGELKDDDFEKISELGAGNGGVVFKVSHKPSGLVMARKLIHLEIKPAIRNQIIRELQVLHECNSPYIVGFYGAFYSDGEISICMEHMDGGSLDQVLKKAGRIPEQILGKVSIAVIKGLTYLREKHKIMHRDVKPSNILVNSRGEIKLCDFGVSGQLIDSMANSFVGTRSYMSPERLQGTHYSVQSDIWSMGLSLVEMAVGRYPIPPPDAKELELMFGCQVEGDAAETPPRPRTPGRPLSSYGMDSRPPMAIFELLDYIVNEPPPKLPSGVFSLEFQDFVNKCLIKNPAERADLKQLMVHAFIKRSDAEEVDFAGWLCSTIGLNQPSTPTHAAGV
MEK1, sequence (Q02750 whole entry, species assumed): as above

Take (6-14)[D-tyr6, b-Ala11, Phe13, Nle14]: the “surface expression of the bombesin receptor following agonist stimulation” value in experiment [1] was “Changes in surface expression of the bombesin receptor following agonist stimulation are detected”.

Take `Nc1ncnc2c1ncn2[C@@H]1O[C@H](COP(=O)(O)OP(=O)(O)OP(=O)(O)O)[C@@H](O)[C@H]1O` [ATP]: the EC50 on MEK1/ERK2 and at MEK1 was roughly 1 µM in each case.
